Where a name gives a salt, the structure may show the parent alone. Read-outs that look alike come from different tables or passages of the source.
Legend:
[1] = biological target: GST-Syk Full Protein (human) (Homo sapiens, UniProt P43405); assay: Syk kinase inhibition test (HTRF method); format: biochemical
In short: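 HTRF read-out: after EDTA termination and 1 h with XL665-streptavidin and Eu-anti-phosphotyrosine, the 665/620 nm ratio was measured. The reaction ran 30 min at 20–25 °C with final 6.4 nM human GST-Syk, 250 nM biotinylated peptide, 100 μM ATP, pH 7.0 HEPES buffer, 2% DMSO.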

[2] = tested on: cultured human mast cells; assay: Degranulation inhibition test using cultured human mast cells (IgE cross-linking, β-Hexosaminidase release); format: cell-based; settings: Mast cell, cultured human mast cells, read-out: human degranulation ave. IC50
In short: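 Degranulation was triggered by anti-hIgE (10 μg/mL final, 30 min, 37 °C) after a 10-min compound pretreatment (DMSO 0.1%) of cord-blood CD34+-derived mast cells primed 5 days with IL-4 and IgE. β-Hexosaminidase in supernatant was measured with p-nitrophenyl-GlcNAc substrate (A405), expressed against water-lysed total; IC50 (M).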

[3] = Tables 1-x, compounds A, read-out: sykHTRF ave IC50
[4] = HTRF, 100 μM ATP, 30 min room temperature, average, read-out: sykHTRF ave IC50
[5] = anti-hIgE stimulation, β-Hexosaminidase index, average
[6] = Tables 2-x, thiophene compounds B, read-out: sykHTRK ave IC50
[7] = Tables 2-x, thiophene compounds B

Row | Compound | IC50 [1, 3] [nM] | IC50 ([2]; Tables 1-x, compounds A) [nM] | IC50 [1, 4] [nM] | IC50 [2, 5] [nM] | other results
1 | COCCN(C)c1ncc(-c2cccc(Nc3cc(C)ccn3)n2)s1 [Compound A-520, N-(2-methoxyethyl)-N-methyl-N-{5-[6-(4-methylpyridin-2-ylamino)pyridin-2-yl]thiazol-2-yl}amine] | < 100 | 100 to 1000 |  |  | 
2 | Cc1ccnc(Nc2cccc(-c3cnc(C(C)(C)N)s3)n2)c1 [Compound A-113] |  |  | 100 to 1000 | 100 to 1000 | 
3 | CC(=O)c1ccnc(Nc2cccc(-c3cnc(N4CCC(C(N)=O)CC4)s3)n2)c1 [Compound A-543, 1-{5-[6-(4-acetylpyridin-2-ylamino)pyridin-2-yl]thiazol-2-yl}piperidine-4-carboxamide] | < 100 | 100 to 1000 |  |  | 
4 | Cc1ccnc(Nc2cccc(-c3cnc(N4CCC(OCC(=O)O)CC4)s3)n2)c1 [Compound A-594, (1-{5-[6-(4-methylpyridin-2-ylamino)pyridin-2-yl]thiazol-2-yl}piperidin-4-yloxy)acetic acid dihydrochloride] | < 100 | > 1000 |  |  | 
5 | Cc1ccnc(Nc2cccc(-c3cnc(N4CCN(C(=O)C5CCC(O)CC5)CC4)s3)n2)c1 (stereo not drawn) [Compound A-413] | 100 to 1000 | 100 to 1000 |  |  | 
6 | CNC(=O)CN(C)C(=O)C1CCN(c2ncc(-c3cccc(Nc4cc(C)ccn4)n3)s2)CC1 [Compound A-469, N-methyl-N-methylcarbamoylmethyl-1-{5-[6-(4-methylpyridin-2-ylamino)pyridin-2-yl]thiazol-2-yl}piperidine-4-carboxamide] | < 100 | 100 to 1000 |  |  | 
7 | Cc1ccnc(Nc2cccc(-c3cnc([C@H]4CC[C@H](CNC(=O)CO)CC4)s3)n2)c1 [Compound A-235, 2-hydroxy-N-(trans-4-{5-[6-(4-methylpyridin-2-ylamino)pyridin-2-yl]thiazol-2-yl}cyclohexylmethyl)acetamide] |  |  | < 100 | 100 to 1000 | 
8 | CNC(=O)[C@@H]1CCCN1c1ncc(-c2cccc(Nc3cc(C)ccn3)n2)s1 [Compound A-488, N-methyl-(S)-1-{5-[6-(4-methylpyridin-2-ylamino)pyridin-2-yl]thiazol-2-yl}pyrrolidine-2-carboxamide dihydrochloride] | < 100 | 100 to 1000 |  |  | 
9 | O=C(O)CC1CCN(c2ncc(-c3cccc(Nc4ccccn4)n3)s2)CC1 [Compound A-573, (1-{5-[6-(pyridin-2-ylamino)pyridin-2-yl]thiazol-2-yl}piperidin-4-yl)acetic acid dihydrochloride] | < 100 | > 1000 |  |  | 
10 | Cc1ccnc(Nc2cccc(-c3cnc(N4CCCC(C(N)=O)C4)s3)n2)c1 (stereo not drawn) [Compound A-476, 1-{5-[6-(4-methylpyridin-2-ylamino)pyridin-2-yl]thiazol-2-yl}piperidine-3-carboxamide] | < 100 | < 100 |  |  | 
11 | CO[C@@H]1CCN(c2ncc(-c3cccc(Nc4cc(C)ccn4)n3)s2)C1 [Compound A-490, N-{6-[2-((R)-3-methoxypyrrolidin-1-yl)thiazol-5-yl]pyridin-2-yl}-N-(4-methylpyridin-2-yl)amine] | < 100 | 100 to 1000 |  |  | 
12 | CC(=O)NCC(=O)N1CCC(N(C)c2ncc(-c3cccc(Nc4cc(C)ccn4)n3)s2)CC1 [Compound A-461, N-{2-[4-(N′-methyl-N′-{5-[6-(4-methylpyridin-2-ylamino)pyridin-2-yl]thiazol-2-yl}amino)piperidin-1-yl]-2-oxoethyl}acetamide] | < 100 | 100 to 1000 |  |  | 
13 | Cc1ccnc(Nc2cccc(-c3cnc([C@@H](N)Cc4ccc(N)cc4)s3)n2)c1 [Compound A-180] |  |  | 100 to 1000 | > 1000 | 
14 | C/C(=N\OCCO)c1ccc(-c2cccc(Nc3cc(C)ccn3)n2)s1 [Compound B-38, 1-{5-[6-(4-methylpyridin-2-ylamino)pyridin-2-yl]thiophen-2-yl}ethanone O-(2-hydroxyethyl)oxime] |  |  |  |  | IC50 [1, 6]: < 100 nM; IC50 [2, 7]: 100 to 1000 nM
15 | Cc1ccnc(Nc2cccc(-c3cnc(COCC(=O)N4CCN(C)C(=O)C4)s3)n2)c1 [Compound A-388] | > 1000 | > 1000 |  |  | 
16 | Cc1ccnc(Nc2cccc(-c3cnc([C@@H]4COC(=O)N4)s3)n2)c1 [Compound A-14, (S)-4-{5-[6-(4-methylpyridin-2-ylamino)pyridin-2-yl]thiazol-2-yl}oxazolidin-2-one] |  |  | < 100 | 100 to 1000 | 
17 | Cc1ccnc(Nc2cccc(-c3ccc(C(O)CCO)s3)n2)c1 (stereo not drawn) [Compound B-54] |  |  |  |  | IC50 [1, 6]: 100 to 1000 nM; IC50 [2, 7]: 100 to 1000 nM
18 | Cc1ccnc(Nc2cccc(-c3cnc(CN4C(=O)CCCC4=O)s3)n2)c1 [Compound A-350] |  |  | 100 to 1000 | 100 to 1000 | 
19 | Cc1ccnc(Nc2cccc(-c3cnc(CC(=O)N4C[C@@H](O)[C@@H](O)C4)s3)n2)c1 [Compound A-255] |  |  | 100 to 1000 | 100 to 1000 | 
20 | Cc1ccnc(Nc2cccc(-c3cnc(C(=O)NCCO)s3)n2)c1 [Compound A-29] |  |  | 100 to 1000 | 100 to 1000 | 
21 | CC(=O)Nc1ccc(C[C@H](NC(C)=O)c2ncc(-c3cccc(Nc4cc(C)ccn4)n3)s2)cc1 [Compound A-179] |  |  | 100 to 1000 | 100 to 1000 | 

Row | Compound | IC50 [1, 3] [nM] | IC50 ([2]; Tables 1-x, compounds A) [nM] | IC50 [1, 4] [nM] | IC50 [2, 5] [nM] | other results
22 | Cc1ccnc(Nc2cccc(-c3cnc([C@H](C)NC(=O)C4CC4)s3)n2)c1 [Compound A-141] |  |  | 100 to 1000 | 100 to 1000 | 
23 | Cc1ccnc(Nc2cccc(-c3cnc([C@H](C)NC(=O)C(C)C)s3)n2)c1 [Compound A-31] |  |  | 100 to 1000 | 100 to 1000 | 
24 | CC(=O)N[C@@H](Cc1ccc(O)cc1)c1ncc(-c2cccc(Nc3cc(C)ccn3)n2)s1 [Compound A-99] |  |  | 100 to 1000 | 100 to 1000 | 
25 | Cc1ccnc(Nc2cccc(-c3cnc(N(CC(=O)N(C)C)[C@H]4CC[C@H](C(=O)O)CC4)s3)n2)c1 [Compound A-602] | 100 to 1000 | > 1000 |  |  | 
26 | CC(=O)N1CCC(N(C)c2ncc(-c3cccc(Nc4cc(Cl)ccn4)n3)s2)CC1 [Compound A-536, 1-[4-(N-{5-[6-(4-chloropyridin-2-ylamino)pyridin-2-yl]thiazol-2-yl}-N-methylamino)piperidin-1-yl]ethanone] | < 100 | 100 to 1000 |  |  | 
27 | Cc1ccnc(Nc2cccc(-c3cnc([C@@H]4COC(=O)N4CC(=O)N4C[C@@H](O)[C@@H](O)C4)s3)n2)c1 [Compound A-404] | > 1000 | > 1000 |  |  | 
28 | Cc1ccnc(Nc2cccc(-c3cnc(CCc4ccc(C(=O)N5C[C@@H](O)[C@@H](O)C5)cc4)s3)n2)c1 [Compound A-223, ((3R,4S)-3,4-dihydroxypyrrolidin-1-yl)-[4-(2-{5-[6-(4-methylpyridin-2-ylamino)pyridin-2-yl]thiazol-2-yl}ethyl)phenyl]methanone] |  |  | < 100 | 100 to 1000 | 
29 | Cc1ccnc(Nc2cccc(-c3ccc(-c4nnn[nH]4)s3)n2)c1 [Compound B-95] |  |  |  |  | IC50 [1, 6]: 100 to 1000 nM; IC50 [2, 7]: > 1000 nM
30 | COc1ccc(C[C@H](N)c2ncc(-c3cccc(Nc4cc(C)ccn4)n3)s2)cc1 [Compound A-134] |  |  | 100 to 1000 | > 1000 | 
31 | Cc1ccnc(Nc2cccc(-c3cnc([C@H]4CC[C@H](C(=O)N5C[C@H](O)C[C@H](O)C5)CC4)s3)n2)c1 [Compound A-227] |  |  | 100 to 1000 | 100 to 1000 | 
32 | Cc1ccnc(Nc2cccc(-c3cnc([C@@H](NC(=O)OC(C)(C)C)C(C)C)s3)n2)c1 [Compound A-36] |  |  | > 1000 | > 1000 | 
33 | Cc1ccnc(Nc2cccc(-c3cnc([C@H](CO)NC(=O)c4ccc(O)cc4)s3)n2)c1 [Compound A-394] | 100 to 1000 | 100 to 1000 |  |  | 
34 | Cc1ccnc(Nc2cccc(-c3cnc(CN4CC(=O)NC(=O)C4)s3)n2)c1 [Compound A-383, 4-{5-[6-(4-methylpyridin-2-ylamino)pyridin-2-yl]thiazol-2-ylmethyl}piperazine-2,6-dione] | < 100 | 100 to 1000 |  |  | 
35 | Cc1ccnc(Nc2cccc(-c3cnc(COC(=O)NC[C@H]4CC[C@H](C(=O)O)CC4)s3)n2)c1 [Compound A-206] |  |  | > 1000 | > 1000 | 
36 | Cc1ccnc(Nc2cccc(-c3cnc(N(C)C[C@H]4CC[C@H](C(=O)O)CC4)s3)n2)c1 [Compound A-16, trans-4-[(N-methyl-N-{5-[6-(4-methylpyridin-2-ylamino)pyridin-2-yl]thiazol-2-yl}amino)methyl]cyclohexanecarboxylic acid] |  |  | < 100 | 100 to 1000 | 
37 | Cc1ccnc(Nc2cccc(-c3cnc([C@H]4CC[C@H](C(=O)N5CCOCC5)CC4)s3)n2)c1 [Compound A-275] |  |  | 100 to 1000 | 100 to 1000 | 
38 | COC(=O)N[C@@H](C)c1ncc(-c2cccc(Nc3cc(C)ccn3)n2)s1 [Compound A-57] |  |  | 100 to 1000 | 100 to 1000 | 
39 | Cc1ccnc(Nc2cccc(-c3cnc(N(CCO)CCO)s3)n2)c1 [Compound A-544, 2-(N-(2-hydroxyethyl)-N-{5-[6-(4-methylpyridin-2-ylamino)pyridin-2-yl]thiazol-2-yl}amino)ethanol] | < 100 | < 100 |  |  | 
40 | COC(=O)[C@H]1CC[C@H](c2ncc(-c3cccc(Nc4cc5ccccc5cn4)n3)s2)CC1 [Compound A-213] |  |  | > 1000 | 100 to 1000 | 
41 | CCC(=O)N1CCN(c2ncc(-c3cccc(Nc4cc(C)ccn4)n3)s2)CC1 [Compound A-440, 1-(4-{5-[6-(4-methylpyridin-2-ylamino)pyridin-2-yl]thiazol-2-yl}piperazin-1-yl)propan-1-one] | < 100 | 100 to 1000 |  |  | 
42 | Cc1ccnc(Nc2cccc(-c3cnc(Cc4ccc(C(=O)N5CCC(O)CC5)cc4)s3)n2)c1 [Compound A-234] |  |  | > 1000 | > 1000 | 
